Type in all cases: cell-based
Test [1] relates to NCI-H292. As to the kind of experiment: Cell growth inhibition assay (CellTiter-Glo), NCI-H292. The following applies: Homo sapiens; Table 7; NCI-H292 cells; head prints 24 h. How it is done:
Cells were seeded in a 96-well plate (Corning 3610) with 90 μL of culture medium per well, and plates were incubated at 37° C. overnight. A 1,000× DMSO stock solution of the desired compound was prepared the following day. A compound dilution plate was prepared by diluting the stock solution 1:100 in the corresponding cell culture medium, 10 μL of the diluted compound solution was added to each 96-well plate well containing the seeded cells. […] The content of the wells was mixed by shaking continuously for 10 min, and luminescence was measured using Envision (PerkinElmer). The data were analyzed with GraphPad Prism 9 (see FIG. 50).
(§1) Table 6, Table 7, and Table 8 list the cell growth inhibition results, where Gls0 represents the compound concentration to cause 50% cell growth inhibition in comparison with DMSO.

Test [2] concerns BaF3_ASV. As to the kind of experiment: Cell growth inhibition assay (CellTiter-Glo), BaF3_ASV. Particulars: for GI50: BaF3_ASV cells. A general note: ATP-based viability assays read luminescence as a measure of living cells.
Test [3] concerns BaF3_DTC. As to the kind of experiment: Cell growth inhibition assay (CellTiter-Glo), BaF3_DTC.
The target of test [4] is T1, BaF3_YVAM (Her2_A775insYVAM) (Homo sapiens, UniProt P04626, INS775YVMA).
T1 construct: expressed in transfected cells; host or cells: Ba/F3 (engineered)
Put plainly: EGFR degradation assay (western blot), BaF3_YVAM cells. How it is done:
(§2) A431 (EGFR_WT), NCl-H2073 (EGFR_WT), NCl-H292 (EGFR_WT), BaF3_YVAM (Her2_A775insYVAM), BaF3_SVD (EGFR_D770insSVD), BaF3_ASV (EGFR_A776inASV), or BaF3_DTC (EGFR_Exon19del/T790M/C797S) cells were seeded in a 24-well plate at a density of 4×10^5 cells per well for EGFR WT cells and 8× cells per well for EGFR or Her2 mutant cells, and the plates were incubated overnight. The cells were treated with the desired compounds for 24 h. The culture medium was removed, and 100 μL of RIPA buffer (Beyotime, P0013B) containing 1% Protease Inhibitor Cocktail (Bimake, B14001), 1% Phosphatase Inhibitor Cocktail 2 (Sigma, P5726), and 1% Phosphatase Inhibitor Cocktail 3 (Sigma, P0044) were added to lyse the cells. Then, the cell lysates were transferred to 1.5 mL microcentrifuge tubes and centrifuged at 12,000 rpm and 4° C. for 30 min. The supernatants were transferred into new tubes, and the protein concentration was determined using the BCA protein quantification method. All samples were diluted to the same concentration using RIPA buffer, loading buffer was added, samples were denatured, and 15 μg of protein per lane was loaded onto a SurePAGE 4-20% Bis-Tris gel. Samples were separated via electrophoresis in MOPS running buffer at 180 V for 100 min. Then, proteins were transferred onto PVDF membranes using the MiniBlot™ Electrophoretic Transfer Cell Device (Beyotime, E6050). The membrane was blocked using block buffer (LI-COR 927-60001) to prevent non-specific binding. The membrane was incubated with primary antibodies (1:500 dilution, EGFR-CST4405, 1:2000 dilution, Tubulin-ABclonal #AC021) at 4° C. overnight. The membrane was washed three times with 1× TBST buffer for 15 min each. The membrane was incubated with secondary antibodies IRDye 680RD Goat anti-Rabbit IgG Secondary Antibody (1:2000 dilution, LI-COR 926-68071) and IRDye 800CW Goat anti-Mouse IgG Secondary Antibody (1:2000 dilution, LI-COR 926-32210). […] Fluorescence was detected using the Odyssey CLx Imaging System, and the data were analyzed with Empiria Studio Software and GraphPad Prism 9. […]
(Immunoblotting shows a protein as a band on a membrane.)

Test [5] deals with T2, A431 (EGFR_WT) (Homo sapiens, UniProt P00533).
T2 construct: endogenous in cells; host or cells: A431, NCI-H2073, NCI-H292
As to the kind of experiment: EGFR degradation assay (western blot), A431 cells. In a few lines:
(§3)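 Cells seeded overnight, then exposed to compounds for 24 h; lysates run on western blot, EGFR probed with tubulin loading control and fluorescent secondary detection. DC50 = concentration giving 50% EGFR degradation.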

In test [6] the test system is BaF3_DTC (EGFR_Exon19del/T790M/C797S). Put plainly: EGFR degradation assay (western blot), BaF3_DTC cells. In a few lines:
as §3

Test [7] has as its target T3, BaF3_SVD (EGFR_D770insSVD) (Homo sapiens, UniProt P00533, INS770SVD).
T3 construct: expressed in transfected cells; host or cells: Ba/F3 (engineered)
As to the kind of experiment: EGFR degradation assay (western blot), BaF3_SVD cells. The method, then: as §2

The target of test [8] is T4, BaF3_ASV (EGFR_A776inASV) (Homo sapiens, UniProt P00533, DUP767-769).
T4 construct: expressed in transfected cells; host or cells: Ba/F3 (engineered)
Put plainly: EGFR degradation assay (western blot), BaF3_ASV cells. The following applies: for DC50: BaF3_ASV cells. A digest of the protocol: as §3

Test [9] has as its system BaF3_SVD. As to the kind of experiment: Cell growth inhibition assay (CellTiter-Glo), BaF3_SVD. The method, then: Cells were seeded in a 96-well plate (Corning 3610) with 90 μL of culture medium per well, and plates were incubated at 37° C. overnight. A 1,000× DMSO stock solution of the desired compound was prepared the following day. A compound dilution plate was prepared by diluting the stock solution 1:100 in the corresponding cell culture medium, 10 μL of the diluted compound solution was added to each 96-well plate well containing the seeded cells. Then, the cells were cultured at 37° C. for three days following compound treatment, 100 μL of CellTiter-Glo reagents (Promega G7573) was added to each well of the 96-well plate. The content of the wells was mixed by shaking continuously for 10 min, and luminescence was measured using Envision (PerkinElmer). The data were analyzed with GraphPad Prism 9 (see FIG. 50).
as §1

Setting [10] is: BaF3_ASV, comparison with Compound A, in words.
Where [11] appears, read: BaF3_SVD, comparison with Compound A, in words.

Where two headings read alike, the source gives them in different places.

T4 sequence (P00533 with tags, fused parts or gaps DUP767-769): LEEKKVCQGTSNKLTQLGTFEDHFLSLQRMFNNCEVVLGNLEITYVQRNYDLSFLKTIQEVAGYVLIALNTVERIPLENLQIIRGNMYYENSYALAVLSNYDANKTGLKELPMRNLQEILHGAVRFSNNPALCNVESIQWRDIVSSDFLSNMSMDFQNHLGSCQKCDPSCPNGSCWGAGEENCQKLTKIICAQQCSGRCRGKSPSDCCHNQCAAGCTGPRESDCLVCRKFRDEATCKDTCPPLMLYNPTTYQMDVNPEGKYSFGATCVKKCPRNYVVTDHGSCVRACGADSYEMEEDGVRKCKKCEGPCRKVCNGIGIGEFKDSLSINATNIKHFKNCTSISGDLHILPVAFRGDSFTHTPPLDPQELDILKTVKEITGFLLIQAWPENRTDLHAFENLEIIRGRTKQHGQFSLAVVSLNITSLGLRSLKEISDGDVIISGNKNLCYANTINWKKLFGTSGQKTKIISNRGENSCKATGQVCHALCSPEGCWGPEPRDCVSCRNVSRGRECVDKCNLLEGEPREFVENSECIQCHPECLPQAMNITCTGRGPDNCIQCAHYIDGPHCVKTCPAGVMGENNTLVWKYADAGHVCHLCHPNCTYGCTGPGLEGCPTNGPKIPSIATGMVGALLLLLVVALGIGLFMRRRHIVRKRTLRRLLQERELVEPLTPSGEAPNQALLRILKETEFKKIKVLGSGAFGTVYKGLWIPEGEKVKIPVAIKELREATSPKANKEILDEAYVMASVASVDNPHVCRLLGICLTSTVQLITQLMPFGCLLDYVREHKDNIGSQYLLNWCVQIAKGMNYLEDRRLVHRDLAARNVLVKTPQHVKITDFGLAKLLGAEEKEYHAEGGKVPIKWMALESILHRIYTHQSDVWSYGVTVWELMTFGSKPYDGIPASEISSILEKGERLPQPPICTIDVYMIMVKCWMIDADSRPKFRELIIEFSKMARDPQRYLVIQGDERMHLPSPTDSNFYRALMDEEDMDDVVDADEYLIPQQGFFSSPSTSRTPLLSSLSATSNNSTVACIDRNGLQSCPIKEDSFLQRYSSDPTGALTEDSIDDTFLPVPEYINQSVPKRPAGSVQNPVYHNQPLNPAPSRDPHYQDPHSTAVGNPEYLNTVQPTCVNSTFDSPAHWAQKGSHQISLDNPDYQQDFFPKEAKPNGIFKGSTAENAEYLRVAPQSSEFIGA
T2 sequence (P00533 25-1210): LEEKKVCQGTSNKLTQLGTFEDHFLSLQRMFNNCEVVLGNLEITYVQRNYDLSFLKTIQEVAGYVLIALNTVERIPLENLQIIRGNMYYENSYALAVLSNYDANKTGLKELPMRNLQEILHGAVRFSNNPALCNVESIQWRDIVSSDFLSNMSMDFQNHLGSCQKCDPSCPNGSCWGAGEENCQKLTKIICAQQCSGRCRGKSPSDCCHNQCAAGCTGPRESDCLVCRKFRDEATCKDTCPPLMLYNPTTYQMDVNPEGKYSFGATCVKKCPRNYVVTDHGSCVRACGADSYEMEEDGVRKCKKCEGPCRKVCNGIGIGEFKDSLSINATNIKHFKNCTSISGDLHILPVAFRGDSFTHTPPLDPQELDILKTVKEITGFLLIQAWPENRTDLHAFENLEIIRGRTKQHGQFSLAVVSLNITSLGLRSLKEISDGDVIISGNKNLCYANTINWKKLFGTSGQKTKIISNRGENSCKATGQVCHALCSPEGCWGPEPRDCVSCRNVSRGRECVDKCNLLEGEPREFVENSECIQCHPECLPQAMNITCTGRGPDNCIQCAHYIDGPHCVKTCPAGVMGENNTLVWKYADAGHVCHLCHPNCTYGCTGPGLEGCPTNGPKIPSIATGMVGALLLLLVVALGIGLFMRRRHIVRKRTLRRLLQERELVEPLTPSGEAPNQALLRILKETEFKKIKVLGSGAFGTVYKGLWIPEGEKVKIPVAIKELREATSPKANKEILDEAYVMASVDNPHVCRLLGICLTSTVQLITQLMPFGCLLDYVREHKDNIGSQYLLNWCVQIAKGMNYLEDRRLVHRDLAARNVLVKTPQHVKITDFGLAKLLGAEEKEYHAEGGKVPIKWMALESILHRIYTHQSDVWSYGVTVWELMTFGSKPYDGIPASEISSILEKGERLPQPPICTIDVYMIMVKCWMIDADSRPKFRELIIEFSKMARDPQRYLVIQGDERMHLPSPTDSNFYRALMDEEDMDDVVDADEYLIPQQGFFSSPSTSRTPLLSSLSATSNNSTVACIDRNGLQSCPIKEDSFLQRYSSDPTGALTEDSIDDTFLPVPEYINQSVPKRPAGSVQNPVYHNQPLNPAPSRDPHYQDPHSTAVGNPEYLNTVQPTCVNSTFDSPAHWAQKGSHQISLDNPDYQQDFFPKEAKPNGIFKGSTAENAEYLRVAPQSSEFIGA
T3 sequence (P00533 with tags, fused parts or gaps INS770SVD): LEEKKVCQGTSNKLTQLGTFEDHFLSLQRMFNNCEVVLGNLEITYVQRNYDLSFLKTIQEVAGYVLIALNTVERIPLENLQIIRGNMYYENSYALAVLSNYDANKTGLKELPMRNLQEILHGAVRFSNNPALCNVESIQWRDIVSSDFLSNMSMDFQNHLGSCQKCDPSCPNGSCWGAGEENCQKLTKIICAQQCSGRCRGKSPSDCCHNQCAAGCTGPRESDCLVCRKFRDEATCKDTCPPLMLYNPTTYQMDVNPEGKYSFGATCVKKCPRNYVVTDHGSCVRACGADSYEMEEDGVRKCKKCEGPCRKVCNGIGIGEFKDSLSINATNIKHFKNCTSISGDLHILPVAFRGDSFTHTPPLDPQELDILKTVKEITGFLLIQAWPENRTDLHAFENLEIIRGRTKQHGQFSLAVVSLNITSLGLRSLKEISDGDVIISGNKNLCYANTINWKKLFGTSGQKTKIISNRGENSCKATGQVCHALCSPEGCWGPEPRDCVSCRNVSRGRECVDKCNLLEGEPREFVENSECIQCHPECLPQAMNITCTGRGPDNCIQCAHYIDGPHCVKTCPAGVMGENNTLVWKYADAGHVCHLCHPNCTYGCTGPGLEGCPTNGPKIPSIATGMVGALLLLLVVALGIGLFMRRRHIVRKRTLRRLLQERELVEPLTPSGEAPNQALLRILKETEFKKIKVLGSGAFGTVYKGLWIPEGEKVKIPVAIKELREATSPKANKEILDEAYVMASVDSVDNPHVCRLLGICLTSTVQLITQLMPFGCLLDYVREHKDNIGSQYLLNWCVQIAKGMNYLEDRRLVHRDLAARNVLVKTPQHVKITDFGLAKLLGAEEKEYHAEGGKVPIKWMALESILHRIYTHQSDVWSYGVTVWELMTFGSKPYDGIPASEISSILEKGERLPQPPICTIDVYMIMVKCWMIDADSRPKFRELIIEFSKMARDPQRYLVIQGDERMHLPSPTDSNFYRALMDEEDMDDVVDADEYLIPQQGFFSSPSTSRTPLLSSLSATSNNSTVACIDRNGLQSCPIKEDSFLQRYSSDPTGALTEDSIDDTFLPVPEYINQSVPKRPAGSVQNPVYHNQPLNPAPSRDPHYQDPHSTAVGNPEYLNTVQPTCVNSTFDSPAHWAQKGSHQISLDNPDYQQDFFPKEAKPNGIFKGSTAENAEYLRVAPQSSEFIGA
T1 sequence (P04626 with tags, fused parts or gaps INS775YVMA): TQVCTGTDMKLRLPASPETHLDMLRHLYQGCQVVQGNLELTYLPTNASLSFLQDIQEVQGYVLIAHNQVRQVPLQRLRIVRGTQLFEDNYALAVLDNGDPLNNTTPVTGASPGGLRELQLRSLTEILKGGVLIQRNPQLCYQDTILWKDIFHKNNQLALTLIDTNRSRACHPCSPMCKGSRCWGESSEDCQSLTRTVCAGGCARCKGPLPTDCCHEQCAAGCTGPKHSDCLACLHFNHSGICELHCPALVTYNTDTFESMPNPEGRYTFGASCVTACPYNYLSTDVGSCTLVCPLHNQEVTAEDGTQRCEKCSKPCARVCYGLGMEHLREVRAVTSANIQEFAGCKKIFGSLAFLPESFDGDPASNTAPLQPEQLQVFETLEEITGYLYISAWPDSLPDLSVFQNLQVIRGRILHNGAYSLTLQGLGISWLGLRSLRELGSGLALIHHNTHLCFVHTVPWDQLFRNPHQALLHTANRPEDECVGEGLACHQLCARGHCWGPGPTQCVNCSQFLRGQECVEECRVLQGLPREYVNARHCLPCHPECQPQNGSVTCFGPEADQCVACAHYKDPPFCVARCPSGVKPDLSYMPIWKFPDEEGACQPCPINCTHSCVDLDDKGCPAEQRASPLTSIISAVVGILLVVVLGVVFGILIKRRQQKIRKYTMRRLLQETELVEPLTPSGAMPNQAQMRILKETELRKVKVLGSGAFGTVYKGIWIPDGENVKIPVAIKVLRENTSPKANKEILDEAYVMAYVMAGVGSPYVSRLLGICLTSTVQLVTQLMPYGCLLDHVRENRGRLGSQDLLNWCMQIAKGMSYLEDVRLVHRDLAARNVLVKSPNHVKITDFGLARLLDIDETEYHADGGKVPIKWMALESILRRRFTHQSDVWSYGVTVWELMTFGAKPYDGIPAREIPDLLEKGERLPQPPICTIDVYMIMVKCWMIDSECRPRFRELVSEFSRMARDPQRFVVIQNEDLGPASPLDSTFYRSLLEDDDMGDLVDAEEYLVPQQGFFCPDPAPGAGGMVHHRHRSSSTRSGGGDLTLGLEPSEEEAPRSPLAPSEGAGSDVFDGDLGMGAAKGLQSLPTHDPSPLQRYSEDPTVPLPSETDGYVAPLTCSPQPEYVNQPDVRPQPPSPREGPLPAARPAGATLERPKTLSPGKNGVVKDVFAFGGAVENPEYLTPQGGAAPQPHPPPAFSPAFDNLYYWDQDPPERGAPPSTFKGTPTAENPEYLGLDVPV

For `CCc1cc(Nc2ncc(Br)c(Nc3ccc4nccnc4c3NS(C)(=O)=O)n2)c(OC)cc1N1CCC(N2CCN(CCc3cccc4c3n(CC)c(=O)n4C3CCC(=O)NC3=O)CC2)CC1` (stereo not shown) [Compound 11, N-(6-((5-bromo-2-((4-(4-(4-(2-(1-(2,6-dioxopiperidin-3-yl)-3-ethyl-2-oxo-2,3-dihydro-1H-benzo[d]imidazol-4-yl)ethyl)piperazin-1-yl)piperidin-1-yl)-5-ethyl-2-methoxyphenyl)amino)pyrimidin-4-yl)amino)quinoxalin-5-yl)methanesulfonamide], the GI50 worked out at 436 nM in test [1]; 75.2 nM in [2] (72 h, Table 6, three days, CellTiter-Glo, read-out: BaF3_ASV GI50); 75.2 nM in test [2] (Table 7, head prints 24 h, read-out: GI50 (nM), 24 h, BaF3_ASV); 6.37 nM in [3] (72 h, Table 6, BaF3_DTC cells, three days, CellTiter-Glo, read-out: BaF3_DTC GI50); 6.37 nM in [3] (Table 7, BaF3_Del19/T790M/C797S cells, head prints 24 h, read-out: GI50 (nM), 24 h, BaF3_Del19/T790M/C797S); 106 nM in test [9] (Table 7, BaF3_SVD cells). Further, in [2] (setting [10]), the “Potency in cell growth inhibition compared with Compound A (BaF3_ASV)” value is reported as “significantly increased potency”. In addition, the “Potency in degrading Her2 mutant form compared with Compound A (BaF3_YVMA)” value in test [4] (BaF3_YVMA, comparison with Compound A, in words) was “significantly increased potency”. For the same compound, the DC50 in [4] (Table 5, BaF3_YVMA cells (mutant Her2), 24 h) was 33.3 nM; in test [5] (Table 5, 24 h, read-out: DC50 (nM), 24 h, A431), above 1000 nM; in test [5] (compounds 24 h, western blot, read-out: A431 DC50), above 1000 nM; in [6] (BaF3_DTC cells (EGFR_Exon19del/T790M/C797S), compounds 24 h, western blot, read-out: BaF3_DTC DC50) it was 1.2 nM; in test [6] (Table 5, BaF3_Del19/T790M/C797S cells, 24 h, read-out: DC50 (nM), 24 h, BaF3_Del19/T790M/C797S) it was 1.2 nM; in test [7] (Table 5, BaF3_SVD cells, 24 h), 21.6 nM. Besides, the DC50 was determined as 22.4 nM in [8] (compounds 24 h, western blot, read-out: BaF3_ASV DC50) and 22.4 nM in test [8] (Table 5, 24 h, read-out: DC50 (nM), 24 h, BaF3_ASV). Further, in test [7] (setting [11]), the “Potency in degrading EGFR exon20 insertion mutant form compared with Compound A (BaF3_SVD)” value was “significantly increased potency”. In addition, in [8] (setting [10]), the “Potency in degrading EGFR exon20 insertion mutant form compared with Compound A (BaF3_ASV)” value is “significantly increased potency”. The “Potency in cell growth inhibition compared with Compound A (BaF3_SVD)” value in test [9] (setting [11]) is on record as “significantly increased potency”.

For the origin of these results see US20250002473A1, “QUINOXALINE DERIVED SULFONAMIDES WITH EGFR DEGRADATION ACTIVITIES AND THEIR USES THEREOF” (Accutar Biotechnology Inc., priority 2023, published 2025).
